How the values were obtained:
mouse DGAT1 = target: T1, mouse DGAT1 (Mus musculus, UniProt Q9Z2A7); test: DGAT1 inhibitory effect test (microsome fraction, [14C]-oleoyl-CoA, triglyceride radioactivity by TLC); assay type: biochemical; details: 0.5 h; concentration of the test compound 0.1 μg/ml; mouse DGAT1 microsomes, 23° C., 30 minutes; read-out: Inhibitory ratio
T1 construct: made in house; host or cells: insect cells (High Five, Sf9, Sf21, etc.), baculovirus expression system (Invitrogen)
T1 sequence (Q9Z2A7 1-498): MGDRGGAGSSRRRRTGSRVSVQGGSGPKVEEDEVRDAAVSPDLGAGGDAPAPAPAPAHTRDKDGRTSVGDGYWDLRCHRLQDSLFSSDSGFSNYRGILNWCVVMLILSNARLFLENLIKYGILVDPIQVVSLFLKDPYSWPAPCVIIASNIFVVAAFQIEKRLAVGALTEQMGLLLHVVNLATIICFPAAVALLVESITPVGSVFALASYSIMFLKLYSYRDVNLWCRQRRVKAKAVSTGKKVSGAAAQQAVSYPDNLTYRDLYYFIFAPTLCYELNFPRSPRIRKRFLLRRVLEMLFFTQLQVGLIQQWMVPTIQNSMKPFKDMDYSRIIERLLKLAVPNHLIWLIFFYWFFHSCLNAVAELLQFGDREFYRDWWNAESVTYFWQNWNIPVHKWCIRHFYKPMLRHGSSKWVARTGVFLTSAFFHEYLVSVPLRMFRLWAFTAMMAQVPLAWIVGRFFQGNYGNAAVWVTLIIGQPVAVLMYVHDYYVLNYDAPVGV
Method in brief: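 Inhibition was scored from radiolabelled triglyceride separated by TLC, relative to vehicle and net of a 0-min background. The reaction ran for 30 min at room temperature (23 °C) in Tris-HCl pH 8.0 with MgCl2, BSA and Triton X-100. Substrates were 30 μM [14C]-oleoyl-CoA and 0.5 mM dioleoylglycerol, with mouse DGAT1 microsomes from baculovirus-infected insect cells as enzyme.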

With CCOc1ccc(C)cc1NC(=O)Nc1ccc(N2CCN(C(=O)Nc3c(Cl)cccc3Cl)CC2)cc1 [Example 134, 4-{4-[3-(2-ethoxy-5-methyl-phenyl)-ureido]-phenyl}-piperazine-1-carboxylic acid (2,6-dichloro-phenyl)-amide] the inhibition at 0.1 µg/mL (mouse DGAT1) was at least 50% and the melting point was 159 to 161 °C.
Work on CCOc1ccc(Cl)cc1NC(=O)Nc1ccc(N2CCN(C(=O)Nc3c(Cl)cccc3Cl)CC2)cc1 [Example 135, 4-{4-[3-(5-chloro-2-ethoxy-phenyl)-ureido]-phenyl}-piperazine-1-carboxylic acid (2,6-dichloro-phenyl)-amide] yielded an inhibition at 0.1 µg/mL (mouse DGAT1) of at least 50% and a melting point of 135 to 137 °C.
With COc1ccc(C)cc1NC(=O)Nc1ccc(N2CCN(C(=O)Nc3ccccc3C(F)(F)F)CC2)nc1 [Example 137, 4-{5-[3-(2-methoxy-5-methyl-phenyl)-ureido]-pyridin-2-yl}-piperazine-1-carboxylic acid (2-trifluoromethyl-phenyl)-amide] the inhibition at 0.1 µg/mL (mouse DGAT1) was at least 50% and the melting point was 213 to 214 °C.
Work on COc1ccc(C)cc1NC(=O)Nc1ccc(N2CCN(C(=O)Nc3c(C)cccc3C)CC2)nc1 [Example 138, 4-{5-[3-(2-methoxy-5-methyl-phenyl)-ureido]-pyridin-2-yl}-piperazine-1-carboxylic acid (2,6-dimethyl-phenyl)-amide] yielded an inhibition at 0.1 µg/mL (mouse DGAT1) of at least 50% and a melting point of 221 to 223 °C.
COc1ccc(C)cc1NC(=O)Nc1ccc(N2CCN(C(=O)Nc3c(F)cccc3C(F)(F)F)CC2)nc1 [Example 139, 4-{5-[3-(2-methoxy-5-methyl-phenyl)-ureido]-pyridin-2-yl}-piperazine-1-carboxylic acid (2-fluoro-6-trifluoromethyl-phenyl)-amide] showed an inhibition at 0.1 µg/mL (mouse DGAT1) of at least 50% and a melting point of 221 to 222 °C.
For COc1ccc(C)cc1NC(=O)Nc1ccc(N2CCN(C(=O)Nc3c(Cl)cccc3Cl)CC2)nc1 [Example 140, 4-{5-[3-(2-methoxy-5-methyl-phenyl)-ureido]-pyridin-2-yl}-piperazine-1-carboxylic acid (2,6-dichloro-phenyl)-amide], the inhibition at 0.1 µg/mL (mouse DGAT1) was at least 50% and the melting point was 222 to 224 °C.
With CCOc1ccccc1NC(=O)Nc1ccc(N2CCN(C(=O)Nc3c(C)cccc3Cl)CC2)nc1 [Example 141, 4-{5-[3-(2-ethoxy-phenyl)-ureido]-pyridin-2-yl}-piperazine-1-carboxylic acid (2-chloro-6-methyl-phenyl)-amide] the inhibition at 0.1 µg/mL (mouse DGAT1) was at least 50% and the melting point was 185 to 186 °C.
CCOc1ccccc1NC(=O)Nc1ccc(N2CCN(C(=O)Nc3c(C)cccc3C)CC2)nc1 [Example 142, 4-{5-[3-(2-ethoxy-phenyl)-ureido]-pyridin-2-yl}-piperazine-1-carboxylic acid (2,6-dimethyl-phenyl)-amide] gave an inhibition at 0.1 µg/mL (mouse DGAT1) of at least 50% and a melting point of 188 to 190 °C.
For CCOc1ccccc1NC(=O)Nc1ccc(N2CCN(C(=O)Nc3c(F)cccc3C(F)(F)F)CC2)nc1 [Example 143, 4-{5-[3-(2-ethoxy-phenyl)-ureido]-pyridin-2-yl}-piperazine-1-carboxylic acid (2-fluoro-6-trifluoromethyl-phenyl)-amide], the inhibition at 0.1 µg/mL (mouse DGAT1) was at least 50% and the melting point was 177 to 179 °C.
CCOc1ccccc1NC(=O)Nc1ccc(N2CCN(C(=O)Nc3c(Cl)cccc3Cl)CC2)nc1 [Example 144, 4-{5-[3-(2-ethoxy-phenyl)-ureido]-pyridin-2-yl}-piperazine-1-carboxylic acid (2,6-dichloro-phenyl)-amide] gave an inhibition at 0.1 µg/mL (mouse DGAT1) of at least 50% and a melting point of 170 to 172 °C.
CCOc1ccccc1NC(=O)Nc1ccc(N2CCN(C(=O)Nc3ccc(OC)cc3C)CC2)nc1 [Example 145, 4-{5-[3-(2-ethoxy-phenyl)-ureido]-pyridin-2-yl}-piperazine-1-carboxylic acid (4-methoxy-2-methyl-phenyl)-amide] showed an inhibition at 0.1 µg/mL (mouse DGAT1) of at least 50% and a melting point of 166 to 168 °C.
CCOc1ccccc1NC(=O)Nc1ccc(N2CCN(C(=O)Nc3ccc(C)cc3Cl)CC2)nc1 [Example 146, 4-{5-[3-(2-ethoxy-phenyl)-ureido]-pyridin-2-yl}-piperazine-1-carboxylic acid (2-chloro-4-methyl-phenyl)-amide] gave an inhibition at 0.1 µg/mL (mouse DGAT1) of at least 50% and a melting point of 136 to 137 °C.
COc1ccc(C)cc1NC(=O)Nc1ccc(N2CCN(C(=O)Nc3ccc(C)cc3Cl)CC2)nc1 [Example 147, 4-{5-[3-(2-methoxy-5-methyl-phenyl)-ureido]-pyridin-2-yl}-piperazine-1-carboxylic acid (2-chloro-4-methyl-phenyl)-amide] showed an inhibition at 0.1 µg/mL (mouse DGAT1) of at least 50% and a melting point of 214 to 215 °C.
Work on COc1ccc(F)cc1NC(=O)Nc1ccc(N2CCN(C(=O)Nc3c(C)cccc3Cl)CC2)nc1 [Example 148, 4-{5-[3-(5-fluoro-2-methoxy-phenyl)-ureido]-pyridin-2-yl}-piperazine-1-carboxylic acid (2-chloro-6-methyl-phenyl)-amide] yielded an inhibition at 0.1 µg/mL (mouse DGAT1) of at least 50% and a melting point of 227 to 228 °C.
Compound COc1ccc(F)cc1NC(=O)Nc1ccc(N2CCN(C(=O)Nc3c(C)cccc3C)CC2)nc1 [Example 149, 4-{5-[3-(5-fluoro-2-methoxy-phenyl)-ureido]-pyridin-2-yl}-piperazine-1-carboxylic acid (2,6-dimethyl-phenyl)-amide] has an inhibition at 0.1 µg/mL (mouse DGAT1) of at least 50% and a melting point of 226 to 228 °C.
For COc1ccc(F)cc1NC(=O)Nc1ccc(N2CCN(C(=O)Nc3c(Cl)cccc3Cl)CC2)nc1 [Example 151, 4-{5-[3-(5-fluoro-2-methoxy-phenyl)-ureido]-pyridin-2-yl}-piperazine-1-carboxylic acid (2,6-dichloro-phenyl)-amide], the inhibition at 0.1 µg/mL (mouse DGAT1) was at least 50% and the melting point was 228 °C.
In the case of COc1ccc(C)cc1NC(=O)Nc1ccc(N2CCN(C(=O)Nc3c(F)cccc3F)CC2)nc1 [Example 152, 4-{5-[3-(2-methoxy-5-methyl-phenyl)-ureido]-pyridin-2-yl}-piperazine-1-carboxylic acid (2,6-difluoro-phenyl)-amide], the inhibition at 0.1 µg/mL (mouse DGAT1) is reported as at least 50% and the melting point is reported as 237 to 239 °C.
For COc1ccc(NC(=O)N2CCN(c3ccc(NC(=O)Nc4cc(F)ccc4OC)cn3)CC2)c(C)c1 [Example 153, 4-{5-[3-(5-fluoro-2-methoxy-phenyl)-ureido]-pyridin-2-yl}-piperazine-1-carboxylic acid (4-methoxy-2-methyl-phenyl)-amide], the inhibition at 0.1 µg/mL (mouse DGAT1) was at least 50% and the melting point was 212 to 214 °C.
For COc1ccc(F)cc1NC(=O)Nc1ccc(N2CCN(C(=O)Nc3ccc(C)cc3Cl)CC2)nc1 [Example 154, 4-{5-[3-(5-fluoro-2-methoxy-phenyl)-ureido]-pyridin-2-yl}-piperazine-1-carboxylic acid (2-chloro-4-methyl-phenyl)-amide], the inhibition at 0.1 µg/mL (mouse DGAT1) was at least 50% and the melting point was 217 to 218 °C.
Work on COc1ccc(C)cc1NC(=O)Nc1ccc(N2CCN(C(=O)Nc3ccc(F)cc3C(F)(F)F)CC2)nc1 [Example 155, 4-{5-[3-(2-methoxy-5-methyl-phenyl)-ureido]-pyridin-2-yl}-piperazine-1-carboxylic acid (4-fluoro-2-trifluoromethyl-phenyl)-amide] yielded an inhibition at 0.1 µg/mL (mouse DGAT1) of at least 50% and a melting point of 186 to 187 °C.
Cc1cccc(Cl)c1NC(=O)N1CCN(c2ccc(NC(=O)Nc3ccc(N(C)C)cc3)cc2)CC1 [Example 156, 4-{4-[3-(4-dimethylamino-phenyl)-ureido]-phenyl}-piperazine-1-carboxylic acid (2-chloro-6-methyl-phenyl)-amide] gave an inhibition at 0.1 µg/mL (mouse DGAT1) of at least 50% and a melting point of 214 to 217 °C.
For CCC(C)c1ccccc1NC(=O)Nc1ccc(N2CCN(C(=O)Nc3c(C)cccc3Cl)CC2)cc1 (centres unmarked) [Example 157, 4-{4-[3-(2-sec-butyl-phenyl)-ureido]-phenyl}-piperazine-1-carboxylic acid (2-chloro-6-methyl-phenyl)-amide], the inhibition at 0.1 µg/mL (mouse DGAT1) was at least 50% and the melting point was 232 to 234 °C.
For Cc1cccc(Cl)c1NC(=O)N1CCN(c2ccc(NC(=O)Nc3ccc(C(C)C)cc3)cc2)CC1 [Example 158, 4-{4-[3-(4-isopropyl-phenyl)-ureido]-phenyl}-piperazine-1-carboxylic acid (2-chloro-6-methyl-phenyl)-amide], the inhibition at 0.1 µg/mL (mouse DGAT1) was at least 50% and the melting point was 278 to 280 °C.
Work on CCOc1ccc(NC(=O)Nc2ccc(N3CCN(C(=O)Nc4c(C)cccc4Cl)CC3)cc2)cc1 [Example 159, 4-{4-[3-(4-ethoxy-phenyl)-ureido]-phenyl}-piperazine-1-carboxylic acid (2-chloro-6-methyl-phenyl)-amide] yielded an inhibition at 0.1 µg/mL (mouse DGAT1) of at least 50% and a melting point of 229 to 230 °C.
In the case of CCc1ccc(NC(=O)Nc2ccc(N3CCN(C(=O)Nc4c(C)cccc4Cl)CC3)cc2)cc1 [Example 160, 4-{4-[3-(4-ethyl-phenyl)-ureido]-phenyl}-piperazine-1-carboxylic acid (2-chloro-6-methyl-phenyl)-amide], the inhibition at 0.1 µg/mL (mouse DGAT1) is reported as at least 50% and the melting point is reported as 239 to 241 °C.
